The structures appear in SMILES notation. Where a SMILES comes first, the peptide text is derived from it.

In one test the target is T1, HLA-Cw07 (Homo sapiens, UniProt P10321).
T1 construct: endogenous in cells
Put plainly: HLA class I competition cell-based binding assay.

For another test, the target named is T2, HLA-Cw06 (Homo sapiens, UniProt P10321, A176E/A330V/C350S/L171W/L180W/L218V/M285V/M309V/M331V/N104K/P208H/Q277E/Q291P/R121W/R243W/S101N/S123Y/S297R/T329A/T363A/V319A/V328M).
T2 construct: endogenous in cells
Kind of test: HLA class I competition cell-based binding assay.

Another test addresses B*3501 (Homo sapiens, UniProt P01889, A329T/A93T/A95T/C349S/D201E/D98Y/E176V/E187L/E204Q/E69T/I218V/K202T/L119I/Q94N/R155S/R180L/S121R/S35A/S48A/T118I/V127L/V306I/V36M/Y140S/Y91F). Put plainly: Competition binding assay using soluble HLA class I. Particulars: HLA-B3501 section.
The target of a further test is T3, B*0702 (Homo sapiens, UniProt P01889).
T3 construct: endogenous in cells
The description is as above. Particulars: Ki (nM), HLA-B0702 section.

For another test, the target named is HLA-A02 (Homo sapiens, UniProt P04439, D140Y/D185E/D98H/E176V/E277Q/G131W/G231S/I119V/I121R/I166T/I218V/L300P/L318F/N151K/N90K/P208A/P217A/Q86G/Q94H/R138H/R169H/T345S). The description is as above.
Another test concerns the target T4, DRB1*0301 (Homo sapiens, UniProt P01903+P01911, A100K/A102G/A103R/A169T/F55Y/I96L/K41T/L162R/M171V/P40S/Q125H/Q178H/Q39Y/R42S/S66N/T106N/T262R/W38E/Y61H).
T4 construct: endogenous in cells; HLA-DR was extracted from cell lysates on an LB3.1 antibody column
Kind of test: Competition binding assay using soluble HLA class II.

A further test concerns the target T5, DRB1*0101 (Homo sapiens, UniProt P01903+P01911, A100R/D57E/F55L/F60I/F76Y/I96L/L162R/M171V/P40L/Q125E/R42F/V115G/Y59C).
T5 construct: endogenous in cells; host or cells: cell lysate
Described as above.

A word on the Ki: it is a dissociation constant, usually derived from enzyme kinetics or from competition with a known ligand. A high value points to weaker binding. On to `CC(C)C[C@H](NC(=O)[C@H](CC(C)C)NC(=O)[C@@H]1CCCN1C(=O)[C@@H](NC(=O)[C@@H]1CCCN1C(=O)CNC(=O)[C@H](Cc1c[nH]cn1)NC(=O)[C@@H](N)CC(C)C)[C@@H](C)O)C(=O)N[C@@H](Cc1ccc(O)cc1)C(=O)O`, for which the Ki on HLA-Cw07 came out at 31 nM.
Regarding `CC[C@H](C)[C@H](NC(=O)[C@@H]1CCCN1C(=O)[C@@H](NC(=O)[C@H](C)NC(=O)[C@H](CCCCN)NC(=O)CNC(=O)[C@H](Cc1ccc(O)cc1)NC(=O)[C@@H](N)Cc1ccccc1)[C@@H](C)CC)C(=O)N[C@@H](CCC(=O)O)C(=O)N[C@H](C(=O)O)C(C)C`, the Ki on HLA-Cw06 amounted to 5690 nM; on HLA-Cw07, 31 nM.
At B*3501, `CSCC[C@H](N)C(=O)NCC(=O)N[C@@H](CO)C(=O)N[C@@H](CO)C(=O)N[C@@H](Cc1ccc(O)cc1)C(=O)NCC(=O)N[C@@H](Cc1ccccc1)C(=O)N[C@@H](CCC(N)=O)C(=O)N[C@@H](Cc1ccc(O)cc1)C(=O)O` showed a Ki of 2610 nM. In other words, the single-digit micromolar range.
With `C[C@H](NC(=O)[C@H](CCC(=O)O)NC(=O)[C@@H]1CCCN1C(=O)[C@H](Cc1c[nH]cn1)NC(=O)[C@H](CCCCN)NC(=O)[C@H](CCCNC(=N)N)NC(=O)[C@@H](N)Cc1ccccc1)C(=O)N[C@H](C(=O)N[C@@H](Cc1ccc(O)cc1)C(=O)O)[C@@H](C)O` (H-FRKHPEATY-OH; N-terminus and C-terminus assumed), on HLA-Cw07, the Ki is 0.2 nM.
On to `CSCC[C@H](NC(=O)CNC(=O)[C@H](CCC(=O)O)NC(=O)[C@H](CC(N)=O)NC(=O)CNC(=O)[C@H](Cc1ccc(O)cc1)NC(=O)[C@@H](N)CC(C)C)C(=O)NCC(=O)N[C@@H](Cc1c[nH]c2ccccc12)C(=O)N[C@@H](C)C(=O)O` (H-LYGNEGMGWA-OH; N-terminus and C-terminus assumed), for which the Ki at HLA-Cw07 was determined as 5110 nM.
Still for that read-out and setting: under `CC[C@H](C)[C@H](NC(=O)[C@@H]1CCCN1C(=O)[C@H](C)NC(=O)[C@H](CC(C)C)NC(=O)[C@H](CC(C)C)NC(=O)[C@@H](N)CCCNC(=N)N)C(=O)N[C@H](C(=O)N[C@@H](C)C(=O)N[C@@H](Cc1ccc(O)cc1)C(=O)O)[C@@H](C)O` stands 4820 nM; under `CC[C@H](C)[C@H](NC(=O)[C@@H](NC(=O)[C@H](CO)NC(=O)[C@@H](NC(=O)[C@H](CC(=O)O)NC(=O)[C@H](CC(C)C)NC(=O)CNC(=O)[C@H](CCCNC(=N)N)NC(=O)[C@H](Cc1ccc(O)cc1)NC(=O)[C@@H](N)Cc1ccc(O)cc1)C(C)C)C(C)C)C(=O)O` (H-YYRGLDVSVI-OH), 87 nM.
At HLA-Cw07, `CC(C)C[C@H](NC(=O)[C@H](C)NC(=O)CNC(=O)[C@H](C)NC(=O)[C@@H](NC(=O)CN)C(C)C)C(=O)N[C@H](C(=O)N[C@@H](C)C(=O)N[C@@H](Cc1ccccc1)C(=O)O)C(C)C` (H-GVAGALVAF-OH; N-terminus and C-terminus assumed) returned an inhibition constant Ki of 6160 nM.
As to `CC(C)C[C@H](NC(=O)[C@@H](NC(=O)[C@H](CCCNC(=N)N)NC(=O)[C@@H](NC(=O)CNC(=O)[C@H](Cc1c[nH]cn1)NC(=O)[C@H](C)NC(=O)[C@H](CC(C)C)NC(=O)[C@H](C)N)C(C)C)C(C)C)C(=O)O`, the Ki on HLA-Cw06 was 3310 nM; at B*0702 it was 7950 nM; on HLA-A02, 627 nM.
Take `CC(C)C[C@H](NC(=O)[C@H](Cc1ccccc1)NC(=O)[C@H](CCCCN)NC(=O)CNC(=O)[C@H](Cc1ccc(O)cc1)NC(=O)[C@@H](NC(=O)[C@H](CO)NC(=O)[C@H](Cc1ccc(O)cc1)NC(=O)[C@@H](N)[C@@H](C)O)[C@@H](C)O)C(=O)O`: the values for the Ki on HLA-Cw06 and at HLA-Cw07 were 4860 nM and 239 nM, respectively.
With `CC[C@H](C)[C@H](NC(=O)[C@H](CC(N)=O)NC(=O)[C@H](CCC(N)=O)NC(=O)[C@@H](N)Cc1c[nH]cn1)C(=O)N[C@H](C(=O)N[C@@H](CC(=O)O)C(=O)N[C@H](C(=O)N[C@@H](CCC(N)=O)C(=O)N[C@@H](Cc1ccc(O)cc1)C(=O)O)C(C)C)C(C)C`, the affinity on HLA-Cw07, expressed as Ki, was 14200 nM. That is a double-digit micromolar value.
One may read the IC50 as the concentration that inhibits the measured activity by half. In turn, `CSCC[C@H](NC(=O)[C@H](CC(C)C)NC(=O)[C@H](C)NC(=O)[C@H](CC(=O)O)NC(=O)[C@@H](NC(=O)[C@H](C)NC(=O)[C@@H](NC(=O)[C@@H](NC(=O)[C@@H](NC(=O)[C@@H](N)C(C)C)C(C)C)C(C)C)C(C)C)[C@@H](C)O)C(=O)N[C@H](C(=O)NCC(=O)N[C@@H](Cc1ccc(O)cc1)C(=O)N[C@H](C(=O)NCC(=O)O)[C@@H](C)O)[C@@H](C)O` had an IC50 at DRB1*0301 of 93 nM. This lies in the double-digit nanomolar range.
Regarding `CC(C)C[C@H](NC(=O)CNC(=O)[C@H](CCCNC(=N)N)NC(=O)[C@H](Cc1ccc(O)cc1)NC(=O)[C@H](Cc1ccc(O)cc1)NC(=O)[C@H](C)NC(=O)[C@@H](N)C(C)C)C(=O)N[C@@H](CC(=O)O)C(=O)N[C@H](C(=O)O)C(C)C`, the values for the Ki on HLA-Cw06 and at B*0702 were 231 nM and 1420 nM, respectively.
For `CC[C@H](C)[C@H](NC(=O)[C@H](CCC(N)=O)NC(=O)CNC(=O)CNC(=O)CNC(=O)[C@@H]1CCCN1C(=O)[C@@H](N)Cc1ccccc1)C(=O)N[C@H](C(=O)NCC(=O)O)C(C)C`, the Ki at B*3501 is 2600 nM.
Turning to `CC[C@H](C)[C@H](N)C(=O)N[C@@H](CCCNC(=N)N)C(=O)N[C@@H](CO)C(=O)N[C@@H](CC(C)C)C(=O)N[C@H](C(=O)N[C@@H](CCC(=O)O)C(=O)N[C@@H](CCCNC(=N)N)C(=O)N[C@@H](CC(C)C)C(=O)N[C@@H](Cc1ccc(O)cc1)C(=O)O)[C@@H](C)O`, the Ki at HLA-Cw06 stood at 318 nM; at HLA-Cw07, 25 nM.
Turning to `CC(C)[C@H](NC(=O)[C@H](CCCNC(=N)N)NC(=O)[C@H](C)NC(=O)[C@H](C)NC(=O)[C@H](C)NC(=O)[C@H](CC(=O)O)NC(=O)[C@H](CO)NC(=O)[C@H](CCC(=O)O)NC(=O)[C@@H]1CCCN1C(=O)[C@@H](NC(=O)[C@H](Cc1ccc(O)cc1)NC(=O)[C@H](Cc1c[nH]cn1)NC(=O)[C@@H](NC(=O)[C@@H]1CCCN1)[C@@H](C)O)C(C)C)C(=O)N[C@H](C(=O)O)[C@@H](C)O`, the IC50 at DRB1*0301 stood at 4950 nM. This counts as single-digit micromolar.
In turn, `CC[C@H](C)[C@H](NC(=O)[C@H](Cc1ccc(O)cc1)NC(=O)[C@@H](N)CCCCN)C(=O)N[C@@H](CCSC)C(=O)N[C@@H](C)C(=O)N[C@@H](CS)C(=O)N[C@@H](CCSC)C(=O)N[C@@H](CO)C(=O)N[C@@H](C)C(=O)O` had a Ki on HLA-Cw07 of 7210 nM.
Take `CC[C@H](C)[C@H](NC(=O)[C@H](CC(C)C)NC(=O)[C@H](CCCNC(=N)N)NC(=O)[C@H](C)NC(=O)[C@@H]1CCCN1C(=O)[C@H](CCCCN)NC(=O)[C@H](CCCNC(=N)N)NC(=O)CN)C(=O)N[C@H](C(=O)N[C@@H](Cc1ccccc1)C(=O)O)C(C)C` (H-GRKPARLIVF-OH): the Ki came to 8960 nM at HLA-Cw06 and 753 nM at HLA-Cw07.
`CC[C@H](C)[C@H](NC(=O)[C@@H](N)CC(N)=O)C(=O)N[C@H](C(=O)N[C@@H](CC(=O)O)C(=O)N[C@H](C(=O)N[C@@H](CCC(N)=O)C(=O)N[C@@H](Cc1ccc(O)cc1)C(=O)N[C@@H](CC(C)C)C(=O)N[C@@H](Cc1ccc(O)cc1)C(=O)O)C(C)C)C(C)C` returned a Ki at HLA-Cw07 of 56 nM.
On to `CSCC[C@H](NC(=O)[C@H](CCCNC(=N)N)NC(=O)[C@H](Cc1c[nH]cn1)NC(=O)CN)C(=O)N[C@@H](C)C(=O)N[C@@H](Cc1c[nH]c2ccccc12)C(=O)N[C@@H](CC(=O)O)C(=O)N[C@@H](CCSC)C(=O)N[C@@H](CCSC)C(=O)N[C@@H](CCSC)C(=O)N[C@@H](CC(N)=O)C(=O)N[C@@H](Cc1c[nH]c2ccccc12)C(=O)N[C@@H](CO)C(=O)N1CCC[C@H]1C(=O)N[C@H](C(=O)O)[C@@H](C)O`, for which the concentration for half-maximal inhibition (IC50) was determined as 183 nM at DRB1*0101 and 919 nM on DRB1*0301.
As for `CC(C)C[C@H](NC(=O)[C@H](CCCNC(=N)N)NC(=O)[C@@H]1CCCN1C(=O)CNC(=O)[C@H](CCCNC(=N)N)NC(=O)[C@H](CCCNC(=N)N)NC(=O)[C@@H]1CCCN1C(=O)[C@@H](N)CC(C)C)C(=O)O`, affinity on B*0702 was put at a Ki of 1 nM.
In turn, `CC(C)C[C@H](NC(=O)[C@@H](NC(=O)CNC(=O)[C@H](CO)NC(=O)[C@H](C)NC(=O)[C@H](CCCNC(=N)N)NC(=O)[C@H](CS)NC(=O)[C@H](CCCNC(=N)N)NC(=O)[C@H](CCCNC(=N)N)NC(=O)[C@@H](N)Cc1ccc(O)cc1)C(C)C)C(=O)O` (H-YRRCRASGVL-OH) had a Ki at HLA-Cw07 of 83 nM.
The same measure, in the same setting: under `N=C(N)NCCC[C@H](NC(=O)[C@H](CCC(N)=O)NC(=O)[C@@H](N)CC(=O)O)C(=O)N1CCC[C@H]1C(=O)N[C@@H](Cc1ccc(O)cc1)C(=O)N[C@@H](CS)C(=O)N[C@@H](Cc1c[nH]c2ccccc12)C(=O)N[C@@H](Cc1c[nH]cn1)C(=O)N[C@@H](Cc1ccc(O)cc1)C(=O)O` (H-DQRPYCWHY-OH; N-terminus and C-terminus assumed) stands 710 nM.
`CC(C)C[C@H](NC(=O)[C@H](CCCNC(=N)N)NC(=O)[C@@H]1CCCN1C(=O)CN)C(=O)NCC(=O)N[C@H](C(=O)N[C@@H](CCCNC(=N)N)C(=O)N[C@@H](C)C(=O)N[C@H](C(=O)N[C@@H](CCCNC(=N)N)C(=O)N[C@@H](CCCCN)C(=O)N[C@H](C(=O)N[C@@H](CO)C(=O)N[C@@H](CCC(=O)O)C(=O)N[C@@H](CCCNC(=N)N)C(=O)O)[C@@H](C)O)[C@@H](C)O)C(C)C` (H-GPRLGVRATRKTSER-OH; N-terminus and C-terminus assumed): the IC50 on DRB1*0301 was determined as 18900 nM.
